Results as given in ChEMBL document CHEMBL4706615, “(Carbonyl)oxyalkyl linker-based amino acid prodrugs of the HIV-1 protease inhibitor atazanavir that enhance oral bioavailability and plasma trough concentration” (Eur J Med Chem, 2020).
Converted amounts (≈) assume the structure as drawn.

Assays:
[1] = AUClast in Sprague-Dawley rat assessed as atazanavir level at 3 mg/kg equiv of atazanavir administered orally; assay type: ADME, organism-based; set-up: route oral, time 0 - last, dose 3 mg/kg(equiv); conditions: in vivo, po
[2] = Tmax in Sprague-Dawley rat assessed as atazanavir level at 3 mg/kg equiv of atazanavir administered orally; assay type: ADME, organism-based; conditions: in vivo, po
[3] = Trough plasma concentration in Sprague-Dawley rat assessed as atazanavir level at 3 mg/kg equiv of atazanavir administered orally measured after 24 hrs; assay type: ADME, organism-based; conditions: in vivo, po; for concentration: read-out: Cmin; for Cmin: BLD = below limit of detection
[4] = Solubility of compound in acetate buffer at pH 4; assay type: physicochemical
[5] = Half life in acetate buffer at pH 4; assay type: physicochemical; conditions: for t1/2: buffer; for half-life: acetate buffer
[6] = Ratio of AUClast in Sprague-Dawley rat assessed as atazanavir to parent level at 3 mg/kg equiv of atazanavir administered orally; assay type: ADME, organism-based; conditions: in vivo, po
[7] = Solubility of compound in 0.1 N aqueous HCl buffer at pH 1; assay type: physicochemical
[8] = Cmax in Sprague-Dawley rat assessed as atazanavir level at 3 mg/kg equiv of atazanavir administered orally; assay type: ADME, organism-based; set-up: route oral, dose 3 mg/kg(equiv); conditions: in vivo, po
[9] = Stability in rat plasma measured after 60 mins; assay type: ADME, cell-free; conditions: 1 h
[10] = Half life in phosphate buffer at pH 6.5; assay type: physicochemical; conditions: for t1/2: buffer; for half-life: phosphate buffer
[11] = Relative oral bioavailability in Sprague-Dawley rat assessed as atazanavir level at 3 mg/kg equiv of atazanavir; assay type: ADME, organism-based; conditions: in vivo
[12] = Solubility of compound in fasted state simulated intestinal fluid; assay type: physicochemical; conditions: simulated gi fluid
[13] = Total AUC in Sprague-Dawley rat assessed as ratio of atazanavir to parent level at 3 mg/kg equiv of atazanavir administered orally; assay type: ADME, organism-based; conditions: in vivo, po
[14] = Solubility of compound in phosphate buffer at pH 6.5; assay type: physicochemical
[15] = Half life in 0.1 N aqueous HCl buffer at pH 1; assay type: physicochemical; conditions: for half-life: 0.1 N aqueous HCl buffer
[16] = Stability of compound in 0.1 N aqueous HCl buffer at pH 1; assay type: physicochemical
[17] = Stability of compound in acetate buffer at pH 4; assay type: physicochemical
[18] = Stability of compound in phosphate buffer at pH 6.5; assay type: physicochemical
[19] = Half life in rat plasma measured after 60 mins; assay type: ADME, cell-free
[20] = Half life in rat hepatocytes measured after 120 mins; assay type: ADME, cell-based, Hepatocyte
[21] = Trough plasma concentration in Sprague-Dawley rat at 30 mg/kg, po measured after 24 hrs; assay type: ADME, organism-based; conditions: read-out: Cmin
[22] = acetate buffer, read-out: solubility
[23] = 0.1 N aqueous HCl buffer, read-out: solubility

SMILES	AUClast [1] [µM·h]	Tmax [2] [h]	concentration [3] [nM]	Ratio AUC [6]	solubility ([7]; buffer) [µg/mL]	Cmax [8] [nM]	t1/2 [10] [h]	F [11] [%]	Ratio AUC [13]	solubility [14] [µg/mL]	solubility [4, 22] [µg/mL]	half-life [5] [h]	solubility [7, 23] [µg/mL]	half-life [15] [h]	also measured
COC(=O)N[C@H](C(=O)N[C@@H](Cc1ccccc1)[C@H](CN(Cc1ccc(-c2ccccn2)cc1)NC(=O)[C@@H](NC(=O)OC)C(C)(C)C)OC(=O)OC(C)OC(=O)[C@H](C(C)C)N(C)C)C(C)(C)C (stereo in doubt; 22)	1.958	0.8	16.7	17	> 1800	398	214.9	103	92.1	–	–	–	–	–	solubility ([4]; buffer): > 490 µg/mL; t1/2 [5]: 334.3 h; Stabilty [9]: Stable; solubility [12]: 11 µg/mL (≈ 12 µM)
COC(=O)N[C@H](C(=O)N[C@@H](Cc1ccccc1)[C@H](CN(Cc1ccc(-c2ccccn2)cc1)NC(=O)[C@@H](NC(=O)OC)C(C)(C)C)OC(=O)OC(C)OC(=O)[C@@H](C(C)C)N(C)C)C(C)(C)C (stereo in doubt; 23)	–	–	–	–	–	–	–	–	–	< 1	> 600	> 500	> 1700	> 500	half-life [10]: > 500 h
COC(=O)N[C@H](C(=O)N[C@@H](Cc1ccccc1)[C@H](CN(Cc1ccc(-c2ccccn2)cc1)NC(=O)[C@@H](NC(=O)OC)C(C)(C)C)OC(=O)OCOC(=O)[C@@H](N)Cc1ccccc1)C(C)(C)C	–	–	–	–	–	–	–	–	–	–	–	16.5	–	17	–
COC(=O)N[C@H](C(=O)N[C@@H](Cc1ccccc1)[C@H](CN(Cc1ccc(-c2ccccn2)cc1)NC(=O)[C@@H](NC(=O)OC)C(C)(C)C)OC(=O)OCOC(=O)[C@@H](N)C(C)C)C(C)(C)C	–	–	–	–	–	–	–	–	–	–	–	–	–	–	Stabilty [16]: Unstable; Stabilty [17]: Unstable; Stabilty [18]: Unstable
COC(=O)N[C@H](C(=O)N[C@@H](Cc1ccccc1)[C@H](CN(Cc1ccc(-c2ccccn2)cc1)NC(=O)[C@@H](NC(=O)OC)C(C)(C)C)OC(=O)OC(C)OC(=O)[C@H](C(C)C)N(C)C)C(C)(C)C (stereo in doubt; 21)	1.097	0.6	1.9	1	–	581	> 500	58	5.7	< 1	> 980	> 500	> 1900	> 500	half-life [19]: 0.683 h; solubility [12]: 3 µg/mL (≈ 3.26 µM); half-life [20]: 0.417 h
COC(=O)N[C@H](C(=O)N[C@@H](Cc1ccccc1)[C@H](CN(Cc1ccc(-c2ccccn2)cc1)NC(=O)[C@@H](NC(=O)OC)C(C)(C)C)OC(=O)OCOC(=O)[C@@H](C(C)C)N(C)C)C(C)(C)C	0.689	0.5	–	2	–	639	–	36	5.3	6 (≈ 6.62 µM)	> 500	376	> 1800	> 500	Cmin [3]: Bld; half-life [10]: 64 h
COC(=O)N[C@H](C(=O)N[C@@H](Cc1ccccc1)[C@H](CN(Cc1ccc(-c2ccccn2)cc1)NC(=O)[C@@H](NC(=O)OC)C(C)(C)C)OC(=O)OCOC(=O)[C@H](C(C)C)N(C)C)C(C)(C)C	0.883	0.4	1.9	2.3	–	573	–	46	7.7	5 (≈ 5.52 µM)	> 450	> 500	> 1200	> 500	half-life [10]: 104 h
COC(=O)N[C@H](C(=O)N[C@@H](Cc1ccccc1)[C@@H](O)CN(Cc1ccc(-c2ccccn2)cc1)NC(=O)[C@@H](NC(=O)OC)C(C)(C)C)C(C)(C)C [ATAZANAVIR]	–	–	–	–	–	–	–	–	–	< 1	< 1	–	–	–	concentration at 24 h [21]: 5 nM

Continued, in another order:

AUClast [1] [µM·h]	Tmax [2] [h]	concentration [3] [nM]	Ratio AUC [6]	solubility ([7]; buffer) [µg/mL]	Cmax [8] [nM]	t1/2 [10] [h]	F [11] [%]	Ratio AUC [13]	solubility [14] [µg/mL]	solubility [4, 22] [µg/mL]	half-life [5] [h]	solubility [7, 23] [µg/mL]	half-life [15] [h]	SMILES	also measured
1.737	0.5	24	22	> 2600	324	–	91	104.8	–	–	–	–	–	COC(=O)N[C@H](C(=O)N[C@@H](Cc1ccccc1)[C@H](CN(Cc1ccc(-c2ccccn2)cc1)NC(=O)[C@@H](NC(=O)OC)C(C)(C)C)OC(=O)OC(C)OC(=O)[C@@H](C(C)C)N(C)C)C(C)(C)C (stereo in doubt; 24)	solubility ([4]; buffer): > 540 µg/mL; t1/2 ([15]; buffer): > 500 h
1.013	0.8	–	–	> 1200	320	> 10.9	53	2.6	–	> 3000	> 500	–	> 500	COC(=O)N[C@H](C(=O)N[C@@H](Cc1ccccc1)[C@H](CN(Cc1ccc(-c2ccccn2)cc1)NC(=O)[C@@H](NC(=O)OC)C(C)(C)C)OC(=O)OC(C)OC(=O)[C@@H](N)C(C)C)C(C)(C)C (stereo in doubt; 18)	Cmin [3]: Bld
–	–	–	–	> 3200	–	5.3	–	–	–	–	–	–	–	COC(=O)N[C@H](C(=O)N[C@@H](Cc1ccccc1)[C@H](CN(Cc1ccc(-c2ccccn2)cc1)NC(=O)[C@@H](NC(=O)OC)C(C)(C)C)OC(=O)OC(C)OC(=O)[C@@H](N)C(C)C)C(C)(C)C (stereo in doubt; 20)	solubility ([4]; buffer): > 1800 µg/mL; t1/2 [5]: 334.3 h
